The values that follow come from ChEMBL document CHEMBL1143995, “Virtual screening approaches for the identification of non-lipid autotaxin inhibitors” (Bioorg Med Chem, 2008).
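Note: activity read as cleavage of a fluorescent lysophosphatidylcholine analog by autotaxin expressed in the cells.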

The assay deals with Autotaxin (Homo sapiens) (UniProt Q13822). The following applies: MDA-MB-435, at 10 µM.
Description: Inhibition of human autotaxin expressed in MDA-MB-435 cells assessed as fluorescent lysophosphatidyl choline analog hydrolysis at 10 uM
The molecule `O=C(NN1C(=O)c2ccc(C(=O)c3ccc4c(c3)C(=O)N(NC(=O)c3ccncc3)C4=O)cc2C1=O)c1ccncc1` had an inhibition of 31%.

For `CCOc1ccccc1N1C(=O)c2ccc(C(=O)c3ccc4c(c3)C(=O)N(c3ccccc3OCC)C4=O)cc2C1=O`, the inhibition was determined as 86%.

Turning to `CCn1cc(C(=O)O)c(=O)c2cnc(N3CCN(C(=S)Nc4cc(Cl)cc(Cl)c4)CC3)nc21`, the inhibition turned out to be 0%.

`O=C(c1ccc2c(c1)C(=O)N(c1ccccc1-c1ccccc1)C2=O)c1ccc2c(c1)C(=O)N(c1ccccc1-c1ccccc1)C2=O` had an inhibition of 91%.

`O=C(O)c1ccc(Oc2ccc(C(=O)c3ccc4c(c3)C(=O)N(c3ccc(O)cc3)C4=O)cc2)cc1`: the inhibition stood at 62%.

For the molecule `O=C(O)c1cccc(NC(=O)c2ccc3c(c2)C(=O)N(Cc2cccnc2)C3=O)c1`, the inhibition was 56%.

For `Cc1cc(=O)oc2c(/C=N/c3ccc(/N=N/c4ccccc4)cc3)c(O)ccc12`, the inhibition amounted to 91%.

`Oc1cccc(/C=N/c2ccc(/N=N/c3ccccc3)cc2)c1O`: the inhibition stood at 86%.

For the molecule `O=C(O)c1ccc2c(c1)C(=O)N(c1cccc(N3C(=O)c4ccc(C(=O)O)cc4C3=O)n1)C2=O`, the inhibition turned out to be 89%.

`CCn1cc(C(=O)O)c(=O)c2cnc(N3CCN(C(=S)NC(=O)c4c(-c5ccccc5)noc4C)CC3)nc21`: the inhibition was 78%.

In turn, `CC(C)C(=O)NC(=S)Nc1ccc(N2CCOCC2)cc1` had an inhibition of 80%.

The molecule `O=C(O)c1ccc2c(c1)C(=O)N(c1ccc(Oc3ccc([N+](=O)[O-])cc3)cc1)C2=O` gave an inhibition of 70%.

In the case of `CC(=O)Nc1ccc(N2C(=O)c3ccc(C(=O)c4ccc5c(c4)C(=O)N(c4ccc(NC(C)=O)cc4)C5=O)cc3C2=O)cc1`, the inhibition stood at 59%.

For `O=C(O)c1ccc2c(c1)C(=O)N(c1ccc(/N=N/c3ccccc3)cc1)C2=O`, the inhibition is 82%.

In the case of `Cc1ccc(C(=O)O)cc1N1C(=O)c2ccc(C(=O)c3ccc4c(c3)C(=O)N(c3cc(C(=O)O)ccc3C)C4=O)cc2C1=O`, the inhibition worked out at 83%.

The molecule `O=C(c1ccc2c(c1)C(=O)N(c1ccc(Br)cc1)C2=O)c1ccc2c(c1)C(=O)N(c1ccc(Br)cc1)C2=O` returned an inhibition of 93%.

Turning to `CCn1cc(C(=O)O)c(=O)c2cc(F)c(N3CCN(C(=S)NC4CC5CCC4C5)CC3)cc21` (stereo not given), the inhibition turned out to be 83%.

Molecule `O=C(O)c1cn(C2CC2)c2cc(N3CCN(C(=S)Nc4ccc5c(c4)OCCO5)CC3)c(F)cc2c1=O` yielded an inhibition of 91%.

As for `Oc1ccc(/N=N/c2ccccc2Br)cc1/C=N/c1ccc(I)cc1`, the inhibition turned out to be 87%.

`CC(=O)OCCCN1C(=O)c2ccc(C(=O)c3ccc4c(c3)C(=O)N(CCCOC(C)=O)C4=O)cc2C1=O` gave an inhibition of 58%.

Regarding `Cc1c(NS(=O)(=O)CC23CCC(CC2=O)C3(C)C)c(=O)n(-c2ccccc2)n1C` (stereo not given), the inhibition turned out to be 88%.

Molecule `Cc1ccc(/N=N/c2cc(C)ccc2NC(=O)c2ccc(Oc3ccc(C(=O)Nc4ccc(C)cc4/N=N/c4ccc(C)cc4)cc3)cc2)cc1` registered an inhibition of 93%.

As for `O=C(O)c1ccc2c(c1)C(=O)N(c1ccc(-c3nnc(-c4ccccc4)o3)cc1)C2=O`, the inhibition amounted to 87%.

In turn, `CCn1cc(C(=O)O)c(=O)c2cnc(N3CCN(C(=S)Nc4cc5oc6ccccc6c5cc4OC)CC3)nc21` came in with an inhibition of 88%.

For `Cc1ccc(N2C(=O)c3ccc(C(=O)c4ccc5c(c4)C(=O)N(c4ccc(C)cc4C(=O)O)C5=O)cc3C2=O)c(C(=O)O)c1`, the inhibition came out at 70%.

In turn, `CC(=O)Oc1ccc(N2C(=O)c3ccc(C(=O)c4ccc5c(c4)C(=O)N(c4ccc(OC(C)=O)cc4C(=O)O)C5=O)cc3C2=O)c(C(=O)O)c1` yielded an inhibition of 53%.

The molecule `CCCCOC(=O)c1ccccc1N1C(=O)c2ccc(C(=O)c3ccc4c(c3)C(=O)N(c3ccccc3C(=O)OCCCC)C4=O)cc2C1=O` yielded an inhibition of 87%.

`Cc1ccnc(N2C(=O)c3ccc(C(=O)c4ccc5c(c4)C(=O)N(c4cc(C)ccn4)C5=O)cc3C2=O)c1` gave an inhibition of 91%.

`O=S(=O)(O)c1cc(O)c2c(/N=N/c3c(S(=O)(=O)O)cc4cc(S(=O)(=O)O)cc(O)c4c3O)cc(S(=O)(=O)O)cc2c1` displayed an inhibition of 85%.

Take `CCCCCCCOC(=O)c1ccc(N2C(=O)c3ccc(C(=O)c4ccc5c(c4)C(=O)N(c4ccc(C(=O)OCCCCCCC)cc4)C5=O)cc3C2=O)cc1`: the inhibition amounted to 58%.

In the case of `CC(=O)Oc1cccc(N2C(=O)c3ccc(C(=O)c4ccc5c(c4)C(=O)N(c4cccc(OC(C)=O)c4)C5=O)cc3C2=O)c1`, the inhibition worked out at 80%.

Consider `O=C(O)c1cc(C(=O)O)cc(N2C(=O)c3ccc(C(=O)c4ccc5c(c4)C(=O)N(c4cc(C(=O)O)cc(C(=O)O)c4)C5=O)cc3C2=O)c1`, for which the inhibition was 49%.

`Cc1ccccc1NC(=O)c1cccc(N2C(=O)c3ccc(C(=O)O)cc3C2=O)c1` returned an inhibition of 79%.

In the case of `Cc1ccc(/N=N/c2cc(C)ccc2NC(=O)c2ccc3c(c2)C(=O)N(N2C(=O)c4ccccc4C2=O)C3=O)cc1`, the inhibition is 81%.

`CCCCN1C(=O)c2ccc(C(=O)Nc3cc(C(=O)O)cc(C(=O)O)c3)cc2C1=O` showed an inhibition of 89%.

Molecule `CC(=O)Nc1ccc(/N=N/c2c(S(=O)(=O)O)cc3cc(NC(=O)Nc4ccc5c(O)c(/N=N/c6ccccc6)c(S(=O)(=O)O)cc5c4)ccc3c2O)cc1` yielded an inhibition of 71%.

`O=C(c1ccc2c(c1)C(=O)N(Cc1ccccc1)C2=O)c1ccc2c(c1)C(=O)N(Cc1ccccc1)C2=O` returned an inhibition of 67%.

Regarding `O=C(/C=C/c1cccs1)NC(=S)N1CCCCCC1`, the inhibition amounted to 88%.

In turn, `COc1ccc(N2C(=O)c3ccc(C(=O)Nc4cccc(C(=O)O)c4)cc3C2=O)cc1` showed an inhibition of 58%.

`O=C(O)c1ccc(Oc2ccc(C(=O)c3ccc4c(c3)C(=O)N(c3ccc([N+](=O)[O-])cc3)C4=O)cc2)cc1` gave an inhibition of 90%.

The molecule `COCC(=O)N1N=C(c2cccc(NS(C)(=O)=O)c2)CC1c1cccc([N+](=O)[O-])c1` (stereo not given) gave an inhibition of 85%.

`Cc1c(N2C(=O)c3ccc(C(=O)c4ccc5c(c4)C(=O)N(c4c(C)n(C)n(-c6ccccc6)c4=O)C5=O)cc3C2=O)c(=O)n(-c2ccccc2)n1C` returned an inhibition of 67%.

Molecule `CCS(=O)(=O)N1N=C(c2ccc(NS(C)(=O)=O)cc2)CC1c1ccc(OC)cc1` (stereo not given) yielded an inhibition of 89%.

With `CC(C)(C)c1ccc(C(=O)NC(=S)N2CCCC2)cc1`, the inhibition was 76%.

`O=C(O)c1cccc(NC(=O)c2ccc3c(c2)C(=O)N(c2ccc(/N=N/c4ccccc4)cc2)C3=O)c1` returned an inhibition of 45%.

Molecule `O=C(O)c1cccc(NC(=O)c2ccc3c(c2)C(=O)N(c2ccccc2)C3=O)c1` yielded an inhibition of 79%.

In the case of `O=C(Cc1ccccc1)Nc1cccc(N2C(=O)c3ccc(C(=O)O)cc3C2=O)c1`, the inhibition worked out at 74%.

With `O=C(O)c1cccc(NC(=O)c2ccc3c(c2)C(=O)N(C2CCCCC2)C3=O)c1`, the inhibition was found to be 55%.

`O=C(Nc1ccc(O)c(C(=O)O)c1)c1ccc2c(c1)C(=O)N(CC1CCCO1)C2=O` (stereo not given): the inhibition worked out at 67%.

`O=C(O)c1ccc2c(c1)C(=O)N(c1cccc(-c3nc4ccccc4c(=O)o3)c1)C2=O` displayed an inhibition of 71%.

On to `O=C(O)c1cc(NC(=O)c2ccc3c(c2)C(=O)N(CC2CCCO2)C3=O)cc(C(=O)O)c1` (stereo not given), for which the inhibition worked out at 71%.

On to `CC(=O)OCCN1C(=O)c2ccc(C(=O)c3ccc4c(c3)C(=O)N(CCOC(C)=O)C4=O)cc2C1=O`, for which the inhibition amounted to 91%.

For the molecule `CCn1c(SCC(=O)Nc2ccc(C(C)=O)cc2)nc2nc3c(cc2c1=O)CCCC3`, the inhibition was 21%.

Regarding `O=C(O)c1ccc(Oc2ccc(C(=O)c3ccc4c(c3)C(=O)N(c3cccc5ccccc35)C4=O)cc2)cc1`, the inhibition turned out to be 31%.

For `O=C(c1ccc2c(c1)C(=O)N(c1cccc3ccccc13)C2=O)c1ccc2c(c1)C(=O)N(c1cccc3ccccc13)C2=O`, the inhibition was 59%.

Molecule `Cc1cc(=O)oc2cc(OCC(=O)NC(CC(=O)O)C(=O)O)ccc12` (stereo not given) showed an inhibition of 85%.

On to `O=C(O)c1ccc(CN2C(=O)c3ccc(C(=O)c4ccc5c(c4)C(=O)N(Cc4ccc(C(=O)O)cc4)C5=O)cc3C2=O)cc1`, for which the inhibition amounted to 46%.

The molecule `O=C(/C=C/c1cccc(N2C(=O)c3ccc(C(=O)c4cccc([N+](=O)[O-])c4)cc3C2=O)c1)c1ccccc1` showed an inhibition of 90%.

In turn, `O=C(O)c1ccc2c(c1)C(=O)N(c1cccc(C(=O)Nc3cccc(Cl)c3)c1)C2=O` yielded an inhibition of 48%.

Regarding `O=C(c1ccc2c(c1)C(=O)N(N1C(=O)c3ccccc3C1=O)C2=O)c1ccc2c(c1)C(=O)N(N1C(=O)c3ccccc3C1=O)C2=O`, the inhibition was 90%.

As for `COC(=O)c1ccc(N2C(=O)c3ccc(C(=O)c4ccc5c(c4)C(=O)N(c4ccc(C(=O)OC)cc4)C5=O)cc3C2=O)cc1`, the inhibition stood at 65%.

In the case of `O=C(Cc1ccccc1)Nc1cc(N2C(=O)c3ccc(C(=O)O)cc3C2=O)ccc1Cl`, the inhibition is 74%.

`O=C(O)c1ccc(Oc2ccc(C(=O)c3ccc4c(c3)C(=O)N(c3ccccc3C(=O)O)C4=O)cc2)cc1` registered an inhibition of 71%.

`O=C(O)c1ccc2c(c1)C(=O)N(c1ccc(C(=O)OCC(=O)c3ccccc3)cc1)C2=O` gave an inhibition of 71%.

Molecule `Cc1ccc(NC(=S)NC(=O)C2CCCC2)cc1C` displayed an inhibition of 90%.

For the molecule `CCn1cc(C(=O)O)c(=O)c2cnc(N3CCN(C(=S)NC(CC(=O)OC)C(=O)OC)CC3)nc21` (stereo not given), the inhibition is 62%.

`O=C(O)c1cc(NC(=O)c2ccc3c(c2)C(=O)N(Cc2cccnc2)C3=O)cc(C(=O)O)c1` displayed an inhibition of 86%.

Molecule `O=C(O)c1cccc(NC(=O)c2ccc3c(c2)C(=O)N(c2nccs2)C3=O)c1` showed an inhibition of 71%.

`O=C(NC1c2ccccc2Oc2ccccc21)c1ccc(C(=O)NC2c3ccccc3Oc3ccccc32)cc1` displayed an inhibition of 91%.

Molecule `O=C(O)c1ccc2c(c1)C(=O)N(c1ccc(Cl)c(NC(=O)c3ccc4ccccc4c3O)c1)C2=O` registered an inhibition of 86%.
